Experimental data published in patent US20120016119A1, “NOVEL PYRROLO(2,3-d)PYRIMIDINE COMPOUND” (priority 2009, published 2012).

What was measured:
C57BL/6N male mice = test: Inhibitory effect on increased blood glucose after oral glucose load in fasted mice; type: in vivo; settings: 10 mg/kg orally, one hour before glucose load (3 g/kg, p.o.), C57BL/6N male mice fasted 21 hours
Method: C57BL/6N male mice was fasted for 21 hours, and then a stratified randomization allocation was carried out by EXSUS Ver7.6 NP (Arm Systex Co., Ltd.) based on body weights (n=8). Vehicle (solvent: 0.1% Tween 80/0.5% hydroxypropyl methylcellulose) (control group) or a suspended solution of a test compound in the vehicle (test compound group) was orally administered to the mice, and a glucose load (3 g/kg, p.o.) was carried out one hour after administration of a test compound. Blood samplings from the test mice were carried out at each time point of just before administration of drug (−60 min), immediately before glucose load (0 min), 30 minutes (30 min), 60 minutes (60 min) and 120 minutes (120 min) after glucose load. Blood glucose levels at each time point were measured by glucose CII-Test Wako (manufactured by Wako Pure Chemical Industries, Ltd.), AUC (0-120 min) was calculated in each administration group on the basis of the measured value, and evaluated by time-dependent variance analysis and Student's t-Test using EXSUS Ver7.6NP (Arm Systex Co., Ltd.).
An inhibitory effect on increased blood glucose of each test compound (A ratio value of AUC (0-120 min) of the test compound group in case that AUC (0-120 min) of the control group is 100) is shown in the following Table 36.

human GPR119 = target: T1, human GPR119 (Homo sapiens, UniProt Q8TDV5); test: GPR119 agonistic activity: cAMP production in human GPR119-expressed CHO cells (HTRF cAMP kit); type: cell-based; settings: human GPR119-expressed CHO cells (L8-18), 37° C. for 30 minutes, 500 μM IBMX
T1 construct: expressed in transfected cells; host or cells: CHO cells (LM-3 mock cells carrying luciferase reporter pLG3-CRE6-CRE-VIP); resulting line L8-18
T1 sequence (Q8TDV5 1-335): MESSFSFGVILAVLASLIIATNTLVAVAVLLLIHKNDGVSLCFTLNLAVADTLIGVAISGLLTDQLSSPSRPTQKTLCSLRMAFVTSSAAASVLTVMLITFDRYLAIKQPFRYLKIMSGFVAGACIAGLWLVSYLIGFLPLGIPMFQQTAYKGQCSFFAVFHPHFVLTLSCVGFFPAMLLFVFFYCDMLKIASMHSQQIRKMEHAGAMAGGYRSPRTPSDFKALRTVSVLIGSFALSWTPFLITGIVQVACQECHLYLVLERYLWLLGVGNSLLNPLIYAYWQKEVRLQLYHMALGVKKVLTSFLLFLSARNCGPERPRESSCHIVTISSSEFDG
Method: The present experiment is directed to evaluate GPR119 agonistic activity (in vitro) of test compounds by adding the compounds to human GPR119-expressed CHO cells to determine cAMP production of the cells.
Human GPR119-expressed CHO cells (L8-18) were prepared by introducing an expression vector pMSF1-GPR119 (Geneticin-resistance) carrying human GPR119 genes into CHO cells (LM-3; Mock cells) wherein lusiferase expression vector pLG3-CRE6-CRE-VIP (Hygromycin B-resistance) were introduced according to the known method (The Journal of Biological Chemistry Vol. 274 (34), pp. 23940-23947).
Cryopreserved L8-18 cells were melted, and then suspended into 9-fold amounts of assay buffer and centrifuged (1000 rpm, 5 minutes) at room temperature. The supernatant was removed, and then the precipitated cells were resuspended into assay buffer (4 mL). Thereto was added assay buffer which contained IBMX (manufactured by Sigma, #17018-1G), and 7.5×10^4 cells/mL of cell suspension was prepared. The cell suspension was let stand at room temperature for 15 minutes, and then to each well of 96 half well white plate (manufactured by Corning Incorporated, #3693) were added the cell suspension (20 μL) and a solution of a test compound or AR231453 (5 μL; a total of 25 (final concentration: 1500 cells/well, 500 μM IBMX, 1% dimethylsulfoxide). The mixture was incubated at 37° C. for 30 minutes, and then to each well were added a 20-fold diluted solution (each 12.5 μL/well) of cAMP-d2 and Anti cAMP-Cryptate of HTRF cAMP kit (manufactured by Cisbio, #62AM4PEC). The mixture was stirred, and then was let stand for 1 hour under light shielding. A fluorescence intensity was measured by time-resolved fluorescence mode (Ex: 320 nm, Em: 665 nm, 620 nm) of Microplate Reader (ARVO or SpectraMax M5e). In ARVO, Ratios [Ratio=(665 nm/620 nm)×10^4)] of cAMP-d2 to Anti cAMP-Cryptate were calculated from the resulting fluorescence intensity, and cAMP concentrations of each well were calculated from cAMP standard curve prepared by the Ratios and GraphPad Prism. In SpectraMax M5e, cAMP concentrations of each well were calculated on the basis of a standard curve prepared by the resulting fluorescence intensity and Softmax Pro.
EC50 of test compounds were calculated by GraphPad Prism.

CCc1cnc(N2CCC(n3cc(F)c4c(Nc5ccc(C(=O)N(C)C)cc5Cl)ncnc43)CC2)nc1 [Example Compound 29]
Inhibitory Effect on Increased Blood Glucose (ratio value of AUC (0-120 min) of test compound group, control group = 100) (C57BL/6N male mice): 88
EC50 (human GPR119): < 1000 nM

CCc1cnc(N2CCC(n3cc(F)c4c(Nc5ccc(C(=O)N6CC[C@@H](O)C6)cc5F)ncnc43)CC2)nc1 [Example Compound 61]
Inhibitory Effect on Increased Blood Glucose (ratio value of AUC (0-120 min) of test compound group, control group = 100) (C57BL/6N male mice): 85
EC50 (human GPR119): < 1000 nM
